Measurements from patent US20060154891A1, “Ready-to-use gemcitabine solutions and gemcitabin concentrates” (priority 2004, published 2006).
Where a name gives a salt, the structure may show the parent alone. Read-outs that look alike come from different tables or passages of the source.

How the values were obtained:
[1] = pH range from 3 to 10 investigated; EP 1 479 389 A1; cited from earlier work
[2] = room temperature; strong, aqueous hydrochloric acid solution, pH approximately 3, reconstituted Gemzar lyophilisate; cited from earlier work
[3] = Concentration at which gemcitabine hydrochloride forms a clear solution at room temperature; format: physicochemical
Method: At room temperature, gemcitabine hydrochloride forms a clear solution at a concentration of about 40 mg/milliliter in a strong, aqueous hydrochloric acid solution (pH approximately 3, reconstituted Gemzar® lyophilisate, Eli Lilly) or at a concentration of about 15 mg/mL in an aqueous, weakly alkaline solution having a pH of about 8, and at a concentration of up to 110 mg/mL in an alkaline, ethanolic, aqueous solution with a pH of approximately 10.

Structure (SMILES)	pH described as optimum for stability in aqueous solution [1]	Concentration forming a clear solution [2]	Concentration forming a clear solution ([3]; alkaline, ethanolic, aqueous solution, pH of approximately 10)	Concentration forming a clear solution ([3]; aqueous, weakly alkaline solution, pH of about 8)
Nc1ccn([C@@H]2O[C@H](CO)[C@@H](O)C2(F)F)c(=O)n1 [gemcitabine, 2′-deoxy-2′,2′-difluorocytidine]	about 8			
Nc1ccn([C@@H]2O[C@H](CO)[C@@H](O)C2(F)F)c(=O)n1 [gemcitabine hydrochloride]		about 40 mg/milliliter	up to 110 mg/mL	about 15 mg/mL
